This is an account of results in ChEMBL document CHEMBL2396642, “Discovery of novel series of 6-benzyl substituted 4-aminocarbonyl-1,4-diazepane-2,5-diones as human chymase inhibitors using structure-based drug design” (Bioorg Med Chem, 2013).

By IC50 is commonly meant the concentration that gives 50% inhibition.

One assay concerns the target T1, Neutrophil elastase (Homo sapiens, UniProt P08246).
T1 sequence (P08246 whole entry): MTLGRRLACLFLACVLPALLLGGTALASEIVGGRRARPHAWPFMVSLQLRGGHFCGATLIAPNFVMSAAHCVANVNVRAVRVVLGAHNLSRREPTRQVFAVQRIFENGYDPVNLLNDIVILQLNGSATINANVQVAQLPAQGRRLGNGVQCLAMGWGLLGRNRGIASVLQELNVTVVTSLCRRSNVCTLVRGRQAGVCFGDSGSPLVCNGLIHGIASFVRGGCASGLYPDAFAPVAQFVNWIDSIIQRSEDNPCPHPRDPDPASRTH
Briefly: Inhibition of human neutrophil elastase using MeOSuc-Ala-Ala-Pro-Val-pNA as substrate preincubated for 10 mins followed by substrate addition measured after 10 mins by fluorescence assay.

The target in the next assay is T2, Cathepsin G (Homo sapiens, UniProt P08311).
T2 sequence (P08311 whole entry): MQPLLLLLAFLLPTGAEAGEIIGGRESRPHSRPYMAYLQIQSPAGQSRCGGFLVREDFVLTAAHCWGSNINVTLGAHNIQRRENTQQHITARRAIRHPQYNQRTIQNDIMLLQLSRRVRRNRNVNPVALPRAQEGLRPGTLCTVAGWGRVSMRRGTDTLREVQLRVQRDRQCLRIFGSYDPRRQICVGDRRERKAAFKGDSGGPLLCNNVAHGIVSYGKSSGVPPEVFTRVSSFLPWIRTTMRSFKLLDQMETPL
Briefly: Inhibition of human neutrophil cathepsin G using Boc-Gln-Ala-Arg-MCA as substrate preincubated for 10 mins followed by substrate addition measured after 10 mins by fluorescence assay.

Assay [1] can be described thus: Inhibition of bovine pancreatic alpha-chymotrypsin using Suc-Ala-Ala-Pro-Phe-MCA as substrate preincubated for 10 mins followed by substrate addition measured after 10 mins by fluorescence assay. Set-up: species or system Bos taurus.

Turning to `CC[C@@H](NC(=O)N1CC(=O)NCC(Cc2cc(Cl)ccc2OC)C1=O)C(=O)Nc1cccc(C(=O)O)c1` (some centres undefined), the 50% inhibitory concentration (IC50) on Neutrophil elastase is above 10 µM; against Cathepsin G it was 8.5 µM; in assay [1], above 10 µM.
As for `CC[C@@H](NC(=O)N1CC(=O)NCC(Cc2cc(Cl)ccc2OC)C1=O)C(=O)Nc1cccc(N)c1` (some centres undefined), the IC50 (on Neutrophil elastase; against Cathepsin G; in assay [1]) was above 10 µM each time.
As for `CC[C@@H](NC(=O)N1CC(=O)NCC(Cc2cc(Cl)ccc2OC)C1=O)C(=O)Nc1nnn[nH]1` (some centres undefined), the IC50 (on Neutrophil elastase; at Cathepsin G; in assay [1]) was above 10 µM each time.
With `CC[C@@H](NC(=O)N1CC(=O)NC[C@@H](Cc2cc(Cl)ccc2OC)C1=O)c1cc(C(=O)O)co1`, the half-inhibitory concentration (IC50) against Neutrophil elastase is above 100 µM; against Cathepsin G, 7.8 µM; in assay [1] it was above 88 µM.
Consider `CC[C@@H](NC(=O)N1CC(=O)NC[C@@H](Cc2cc(Cl)ccc2OC)C1=O)c1ccc(C(=O)O)c(N)c1`, for which the IC50 was 100 µM on Neutrophil elastase and above 100 µM in assay [1].
